Consider two molecules from patent publication US12673050B2, “Compositions and their use for the treatment of A1-antitrypsin deficiency” (Centessa Pharmaceuticals (UK) Limited, priority 2021, dated 2026).

The target in one data set is human Z A1AT (Homo sapiens, UniProt P01009, E366K). The data set can be described thus: A1AT cell secretion assay using HEK-Z cells (ELISA). The format is cell-based. On the set-up: expressed in transfected cells; host or cells: HEK-Z cells (HEK-EBNA with Z A1AT plasmid). The following applies: HEK-Z cells, 10, 33, 100 and 333 nM, 48 h. As for the experimental part: HEK-Z cells, a human embryonic kidney cell line stably transfected with the human Z A1AT gene, were plated into 96 well plates (3.0×10^5 cells/ml with 200 μl of media/well) overnight at 37° C. in a humidified atmosphere containing 5% CO2. Following incubation cells were washed with 200 μl serum-free media three times and media was replaced with treatments in quadruplicate using serum-free media containing vehicle, 10 μM suberanilohydroxamic acid (SAHA), (S)-1-((2-(trifluoromethyl)phenyl)sulfonyl)piperidine-3-carboxylic acid or (R)-1-((2-(trifluoromethyl)phenyl)sulfonyl)piperidine-3-carboxylic acid (at concentrations of 10, 33, 100 and 333 nM) for 48 h in a 37° C. incubator in a final volume of 200 μl. […]
(§1) Briefly, a 96 well plate was coated with human A1AT capture antibody overnight at room temperature (1:180 dilution from stock, 100 μl final volume/well). […] After which, 50 μl stop solution (2M H2SO4) was added and optical density (OD) of each well was read at 450 nm with 570 nm blank subtracted from each well using a microplate reader. A 4 parameter logistic curve was constructed using GraphPad Prism 7 and A1AT concentrations were determined in each sample by interpolation from a standard curve and multiplying by the appropriate dilution factor.
(§2) The amount of human A1AT secreted from transfected HEK-EBNA cells into the media was measured by ELISA. […]
In general terms: An ELISA detects its analyte on a solid surface through an enzyme-linked reagent.

Data set [1] in a line: Pharmacokinetics in mice (blood, UPLC-MS/MS). Type of data set: in vivo, mouse. The conditions noted are these: for Cmax / AUC / AUC(0-inf) / half-life / clearance / Vd: mouse, whole blood, male C57Bl/6 mice, blood; for Cmax: po, orally 10 mg/kg by gavage; for AUC / AUC(0-inf) / half-life / clearance / Vd: intravenously 2 mg/kg or orally 10 mg/kg; for half-life: read-out: Half-life in blood (t1/2) (converted); for clearance: read-out: Observed clearance; for Vd: read-out: Volume of distribution (Vz). The method, then:
(S)-1-((2-(trifluoromethyl)phenyl)sulfonyl)piperidine-3-carboxylic acid was administered to male C57BI/6 mice intravenously (2 mg/kg) or orally (10 mg/kg) by gavage. Whole blood diluted with water was prepared from these dosed animals over a time course up to 24 hours post dose to allow blood concentrations of drug to be measured by UPLC-MS/MS.
(R)-1-((2-(trifluoromethyl)phenyl)sulfonyl)piperidine-3-carboxylic acid was administered to male C57BI/6 mice intravenously (2 mg/kg) or orally (10 mg/kg) by gavage. Whole blood diluted with water was prepared from these dosed animals over a time course up to 24 hours post dose to allow blood concentrations of drug to be measured by UPLC-MS/MS.

The target in another data set is T1, human Siiyama A1AT (Homo sapiens, UniProt P01009, S77F).
T1 construct: expressed in transfected cells; host or cells: HEK-Siiyama cells (HEK-EBNA with Siiyama A1AT plasmid)
The data set can be described thus: A1AT cell secretion assay using HEK-Siiyama cells (ELISA). Type of data set: cell-based. The conditions noted are these: 1 or 10 μM, 48 h. The method, then:
HEK-Siiyama cells, a human embryonic kidney cell line stably transfected with the Siiyama A1AT gene, were plated into 96 well plates (3.0×10^5 cells/ml with 200 μl of media/well) overnight at 37° C. in a humidified atmosphere containing 5% CO2. Following incubation cells were washed with 200 μl serum-free media three times and media was replaced with serum-free media containing vehicle, 10 μM suberanilohydroxamic acid (SAHA), (S)-1-((2-(trifluoromethyl)phenyl)sulfonyl)piperidine-3-carboxylic acid (at 1 or 10 μM) or (R)-1-((2-(trifluoromethyl)phenyl)sulfonyl)piperidine-3-carboxylic acid (at 1 or 10 μM) in replicates of eight for 48 h in a 37° C. incubator in a final volume of 200 μl. At the end of the incubation step the supernatants were removed from the wells, centrifuged at 1000×g at 4° C. for 10 min and were assayed for human A1AT levels by ELISA (Human Serpin A1/α1-antitrypsin duo set ELISA, R& D Systems, DY1268) per manufacturer's instructions.
as §1, with “volume/well). The capture antibody was then removed and wells washed three times with 300 μl wash buffer (0.05% Tween 20 in PBS) and then 200 μl reagent diluent (25% Tween 20 in PBS) was incubated in each well for 1 h at room temperature. Diluted samples, standards (125, 250, 500, 1000, 2000, 4000 and 8000 pg/ml A1AT) or blanks were then added to each well in duplicate and the plates were covered with a plate sealer and left at room temperature for 2 h.” for “volume/well).”
as §2

Data set [2] is described as follows: Plasma protein binding by rapid equilibrium dialysis, human plasma. The format is in vitro ADME. The conditions noted are these: 37° C. As for the experimental part: The extent to which (S)-1-((2-(trifluoromethyl)phenyl)sulfonyl)piperidine-3-carboxylic acid and (R)-1-((2-(trifluoromethyl)phenyl)sulfonyl)piperidine-3-carboxylic acid bound to plasma proteins such as albumin and alpha-1 acid glycoprotein within human or mouse blood was determined by rapid equilibrium dialysis. Compounds were incubated at 5 μM for 4 hours at 37° C. Plasma protein binding in mouse plasma was 78.1% and in human plasma was 91.5% for (S)-1-((2-(trifluoromethyl)phenyl)sulfonyl)piperidine-3-carboxylic acid. Plasma protein binding in mouse plasma was 83.8% and in human plasma was 90.5% for (R)-1-((2-(trifluoromethyl)phenyl)sulfonyl)piperidine-3-carboxylic acid.
For orientation: In equilibrium dialysis only unbound substance equilibrates across the membrane.

T1 sequence (P01009 25-418 S77F): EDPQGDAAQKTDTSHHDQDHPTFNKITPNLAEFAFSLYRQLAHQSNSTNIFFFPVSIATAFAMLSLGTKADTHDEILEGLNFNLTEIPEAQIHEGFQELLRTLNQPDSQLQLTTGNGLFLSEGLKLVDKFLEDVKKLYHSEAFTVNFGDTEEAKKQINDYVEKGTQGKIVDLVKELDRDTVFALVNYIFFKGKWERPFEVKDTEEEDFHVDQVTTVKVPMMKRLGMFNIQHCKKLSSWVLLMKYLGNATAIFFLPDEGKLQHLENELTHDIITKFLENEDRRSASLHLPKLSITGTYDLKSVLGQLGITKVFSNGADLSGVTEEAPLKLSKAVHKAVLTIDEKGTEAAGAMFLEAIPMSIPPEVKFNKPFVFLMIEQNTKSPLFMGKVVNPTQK
Chain of human Z A1AT (P01009 25-418 E366K): as the sequence (P01009 25-418 S77F) above, with F53S, E342K counted along it

A word on the Cmax: it is the peak of the concentration-time curve. By AUC is commonly meant concentration integrated over time. A higher AUC goes with high exposure. One may read the AUC(0-inf) as total exposure, with the tail of the curve extrapolated. Read a high AUC(0-inf) as more exposure. A word on the fraction unbound: it is free concentration divided by total concentration. Low readings indicate extensive binding, high ones weak binding. As for `O=C(O)[C@@H]1CCCN(S(=O)(=O)c2ccccc2C(F)(F)F)C1` [(R)-1-((2-(Trifluoromethyl)phenyl)sulfonyl)piperidine-3-carboxylic acid], the “secretion of human Z A1AT into cell supernatant” value on human Z A1AT is listed as “stimulates secretion of human Z A1AT in a dose dependent manner”. In data set [1] (mice, Examples 7 and 8), the “AUC lower than S enantiomer” value is 2.2 fold and the “t½ shorter than S enantiomer” value is on record as 2.2 fold. In data set [1], the peak level (Cmax) was 15600 ng/mL, the AUC worked out at 24200 ng·h/mL, the AUC(0-inf) was 24700 ng·h/mL and the half-life was 32.4 min. For the same molecule, in data set [1], the clearance was found to be 8.2 mL/min/kg and the Vd turned out to be 0.38 L/kg. Besides, at human Siiyama A1AT, the “secretion of human Siiyama A1AT into cell supernatant” value is reported as “does not stimulate secretion of human Siiyama A1AT”. Moreover, in data set [2], the fraction unbound at 4 h, 5 μM is 0.095.
Take `O=C(O)[C@H]1CCCN(S(=O)(=O)c2ccccc2C(F)(F)F)C1` [(S)-1-((2-(Trifluoromethyl)phenyl)sulfonyl)piperidine-3-carboxylic acid]: the “secretion of human Z A1AT into cell supernatant” value on human Z A1AT is “stimulates secretion of human Z A1AT in a dose dependent manner”. Besides, in data set [1], the highest level (Cmax) was 33500 ng/mL, the AUC was 54200 ng·h/mL, the AUC(0-inf) is 54400 ng·h/mL and the half-life is 72 min. In data set [1], the clearance was determined as 4.7 mL/min/kg and the Vd was 0.49 L/kg. Further, the “secretion of human Siiyama A1AT into cell supernatant” value at human Siiyama A1AT is given as “does not stimulate secretion of human Siiyama A1AT”. The same molecule gave a fraction unbound at 4 h, 5 μM in data set [2] of 0.085.
